Reference: patent publication US20100196264A1, “USE OF SOMATOSTATIN ANALOGS IN MYOCARDIAL PERFUSION IMAGING” (THE BRIGHAM AND WOMEN'S HOSPITAL, INC., priority 2007, published 2010)

What was measured:
[1] = tested on: extracardiac uptake of radiotracer; assay: Myocardial perfusion imaging with periprocedural somatostatin analog (examples); format: in vivo
SST1 = SST1 (Homo sapiens, UniProt P30872); conditions: cited from earlier work
SST2 = SST2 (Homo sapiens, UniProt P30874); conditions: cited from earlier work
SST3 = SST3 (Homo sapiens, UniProt P32745); conditions: cited from earlier work
SST4 = SST4 (Homo sapiens, UniProt P31391); conditions: cited from earlier work
portal vein flow = conditions: infusion at various infusion concentrations; adapted from Digestion 1999; 60:132-140; cited from earlier work
[2] = tested on: gastric mucosal blood flow; conditions: fifteen minutes after a single bolus injection; laser Doppler flowmeter; adapted from Surg Endosc (2003) 17: 1570-1572; cited from earlier work
[3] = typical administration at rest; Cardiolite Product Insert; cited from earlier work
[4] = tested on: abdominal radiotracer uptake; conditions: literature, cited from earlier work; for obscuring effect of abdominal radiotracer uptake: myocardial perfusion imaging

SST2, sequence (P30874 whole entry): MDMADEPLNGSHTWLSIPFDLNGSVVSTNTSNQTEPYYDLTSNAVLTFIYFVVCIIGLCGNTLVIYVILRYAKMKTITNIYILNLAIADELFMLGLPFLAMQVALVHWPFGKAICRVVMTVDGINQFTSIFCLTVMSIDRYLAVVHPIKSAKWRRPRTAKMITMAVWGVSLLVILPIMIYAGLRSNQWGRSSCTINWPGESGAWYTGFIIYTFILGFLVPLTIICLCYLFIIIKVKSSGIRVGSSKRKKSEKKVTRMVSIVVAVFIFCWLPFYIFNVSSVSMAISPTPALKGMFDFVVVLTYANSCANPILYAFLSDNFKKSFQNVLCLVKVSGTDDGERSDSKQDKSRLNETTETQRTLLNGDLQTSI
SST1, sequence (P30872 whole entry): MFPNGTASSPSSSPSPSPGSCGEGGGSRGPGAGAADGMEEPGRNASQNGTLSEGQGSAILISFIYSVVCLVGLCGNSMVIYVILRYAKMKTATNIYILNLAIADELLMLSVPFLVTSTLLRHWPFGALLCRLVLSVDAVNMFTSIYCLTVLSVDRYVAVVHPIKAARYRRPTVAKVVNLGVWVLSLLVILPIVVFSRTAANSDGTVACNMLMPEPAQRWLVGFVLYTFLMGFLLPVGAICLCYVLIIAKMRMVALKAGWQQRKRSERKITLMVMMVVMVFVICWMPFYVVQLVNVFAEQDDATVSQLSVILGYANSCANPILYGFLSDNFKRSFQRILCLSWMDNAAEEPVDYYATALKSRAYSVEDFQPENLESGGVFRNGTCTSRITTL
SST3, sequence (P32745 whole entry): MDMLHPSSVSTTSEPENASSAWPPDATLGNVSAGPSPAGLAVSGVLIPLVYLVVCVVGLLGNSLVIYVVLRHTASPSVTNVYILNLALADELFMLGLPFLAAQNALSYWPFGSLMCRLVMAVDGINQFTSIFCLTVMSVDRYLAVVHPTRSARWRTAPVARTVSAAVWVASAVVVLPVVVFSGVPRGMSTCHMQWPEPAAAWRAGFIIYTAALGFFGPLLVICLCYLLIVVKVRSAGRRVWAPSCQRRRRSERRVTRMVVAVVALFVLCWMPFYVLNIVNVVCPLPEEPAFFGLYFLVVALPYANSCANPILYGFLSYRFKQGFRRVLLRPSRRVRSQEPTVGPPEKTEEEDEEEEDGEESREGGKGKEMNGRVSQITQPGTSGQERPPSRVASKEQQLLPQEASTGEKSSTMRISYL
SST4, sequence (P31391 whole entry, the tested form may be a part): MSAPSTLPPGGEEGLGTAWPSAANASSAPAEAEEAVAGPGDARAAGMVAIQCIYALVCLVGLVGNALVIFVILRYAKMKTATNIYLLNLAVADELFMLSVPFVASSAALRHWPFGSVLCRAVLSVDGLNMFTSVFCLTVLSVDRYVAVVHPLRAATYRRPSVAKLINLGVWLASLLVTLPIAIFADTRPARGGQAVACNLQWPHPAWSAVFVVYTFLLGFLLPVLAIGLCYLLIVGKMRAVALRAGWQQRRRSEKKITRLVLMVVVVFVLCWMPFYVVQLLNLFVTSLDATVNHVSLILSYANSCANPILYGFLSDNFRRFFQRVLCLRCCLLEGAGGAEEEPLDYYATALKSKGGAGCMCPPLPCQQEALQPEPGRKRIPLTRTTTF

C[C@@H](O)[C@@H]1NC(=O)[C@H](CCCCN)NC(=O)[C@@H](Cc2c[nH]c3ccccc23)NC(=O)[C@H](Cc2ccccc2)NC(=O)[C@@H](NC(=O)[C@H](N)Cc2ccccc2)CSSC[C@@H](C(=O)N[C@H](CO)[C@@H](C)O)NC1=O [Octreotide, octreotide]
extracardiac uptake of radiotracer ([1]; 100 mcg bolus fifteen minutes prior to radiotracer, then 100 mcg per hour constant infusion, adenosine stress): reduced | extracardiac uptake of radiotracer ([1]; 100 mcg bolus ten minutes prior to radiotracer, second 100 mcg bolus ten minutes prior to adenosine stress): reduced | affinity for SST1 (in words) (SST1): virtually no affinity | affinity for SST2 (in words) (SST2): displaying affinity | affinity for SST3 (in words) (SST3): displaying affinity | affinity for SST4 (in words) (SST4): virtually no affinity | portal vein flow (portal vein flow): decrease | reduction in gastric mucosal blood flow [2]: 50%

[C-]#[N+]CC(C)(C)OC.[C-]#[N+]CC(C)(C)OC.[C-]#[N+]CC(C)(C)OC.[C-]#[N+]CC(C)(C)OC.[C-]#[N+]CC(C)(C)OC.[C-]#[N+]CC(C)(C)OC.[Tc] [Tc-99m-setsamibi]
total dose absorbed into the liver [3]: 19% | total dose taken into the heart [3]: 1.2%

Cn1c(=O)c2[nH]cnc2n(C)c1=O [aminophyllin]
artifacts in images taken after the dipyridamole injection ([4]; used to counter dipyridamole stress): does not prevent artifacts

CC(C)[C@@H]1NC(=O)[C@H](CCCCN)NC(=O)[C@@H](Cc2c[nH]c3ccccc23)NC(=O)[C@H](Cc2ccc(O)cc2)NC(=O)[C@@H](NC(=O)[C@H](N)Cc2ccc3ccccc3c2)CSSC[C@@H](C(=O)N[C@H](C(N)=O)[C@@H](C)O)NC1=O [lanreotide]
extracardiac uptake of radiotracer ([1]; 200 mcg bolus thirty minutes prior to radiotracer, then 200 mcg per hour infusion for rest injections, treadmill exercise stress): reduced | affinity for SST1 (in words) (SST1): virtually no affinity | affinity for SST2 (in words) (SST2): displaying affinity | affinity for SST3 (in words) (SST3): displaying affinity | affinity for SST4 (in words) (SST4): virtually no affinity

CCN(CC)CCNC(=O)c1cc(Cl)c(N)cc1OC [metoclopromide]
obscuring effect of abdominal radiotracer uptake [4]: did not significantly decrease

B1: cholecystokinin (peptide, UniProt P06307 21-115, looked up)
Cholecystokinin: QPVPPADPAGSGLQRAEEAPRRQLRVSQRTDGESRAHLGALLARYIQQARKAPSGRMSIVKNLQNLDPSHRISDRDYMGWMDFGRRSAEEYEYPS
modifications: Cholecystokinin
notes: gastric stimulant
obscuring effect of abdominal radiotracer uptake [4]: without success
